The nature of series [1]: Log D by shake flask method (octanol / PBS pH 7.4, HPLC). Format: physicochemical. Particulars: octanol / PBS pH 7.4, shake flask; read-out: logD. A digest of the protocol: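 Shake-flask partitioning of compound between octanol and PBS at pH 7.4, with phase concentrations quantified by HPLC. The value reported is Log D.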
The target of series [2] is T1, recombinant human transglutaminase 2 (Homo sapiens, UniProt P21980).
T1 sequence (P21980 1-687): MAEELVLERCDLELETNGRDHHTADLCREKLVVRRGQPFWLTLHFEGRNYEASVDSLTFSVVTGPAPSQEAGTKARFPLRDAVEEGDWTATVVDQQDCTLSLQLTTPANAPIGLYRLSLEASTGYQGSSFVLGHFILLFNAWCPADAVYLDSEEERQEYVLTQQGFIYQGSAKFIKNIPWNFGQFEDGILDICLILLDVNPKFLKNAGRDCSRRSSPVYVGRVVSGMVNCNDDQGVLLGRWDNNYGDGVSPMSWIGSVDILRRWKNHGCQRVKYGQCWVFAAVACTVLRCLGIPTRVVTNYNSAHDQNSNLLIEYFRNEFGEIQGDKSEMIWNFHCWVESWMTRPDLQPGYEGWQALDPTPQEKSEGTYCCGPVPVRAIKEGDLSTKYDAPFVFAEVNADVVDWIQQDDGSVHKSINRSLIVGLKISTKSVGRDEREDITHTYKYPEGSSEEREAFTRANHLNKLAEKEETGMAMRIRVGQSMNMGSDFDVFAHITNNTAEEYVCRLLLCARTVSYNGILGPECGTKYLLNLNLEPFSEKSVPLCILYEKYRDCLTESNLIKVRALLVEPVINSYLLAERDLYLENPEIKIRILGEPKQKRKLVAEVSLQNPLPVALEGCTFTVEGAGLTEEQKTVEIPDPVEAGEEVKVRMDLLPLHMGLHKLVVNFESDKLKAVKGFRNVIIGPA
As to the kind of experiment: Transglutaminase assay: incorporation of dansylcadaverine into dimethylcasein (DCC-assay). Particulars: recombinant human TG2 10 nM, dansylcadaverine/dimethylcasein; read-out: IC50 TG2. In kind it is biochemical. The gist of the method:
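Recombinant human TG2 (10 nM final) incorporates dansylcadaverine (16.7 μM) into N,N-dimethylcasein (4 μM) in Tris-HCl buffer, pH 8.0, with 10 mM CaCl2 and 10 mM glutathione. Fluorescence (λex 330, λem 500 nm) followed 30 min. The slope between 20–30 min gives activity versus DMSO control, and IC50 comes from the concentration–activity plot.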

A short description of series [3]: Caco-2 permeability assay (CacoReady kit). In kind it is in vitro ADME. The following applies: human. The gist of the method:
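Papp values come from Caco-2 barrier studies intended to predict oral bioavailability; the manufacturer's procedure for the ready-made kit was followed.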
(In general: Passage across Caco-2 layers is used to estimate intestinal permeability.)

Usually logD stands for the decadic logarithm of the distribution of all forms, ionised or not, between an organic phase and buffer at a given pH. A word on the IC50: it is the concentration that inhibits the measured activity by half. Broadly, the Papp is a coefficient for how fast a substance crosses the barrier. A high value points to fast passage. Turning to `CCNC(=O)C(=O)CC[C@H](NC(=O)c1cnnn1C)C(=O)Nc1cccn(CC(=O)NC2C3CC4CC(C3)CC2C4)c1=O` (stereo partly drawn) [Compound I-56, (S)-N1-ethyl-N6-(1-(2-(2-adamantylamino)-2-oxoethyl)-2-oxo-1,2-dihydropyridin-3-yl)-5-(1-methyl-1H-1,2,3-triazole-5-carboxamido)-2-oxohexanediamide], the log distribution coefficient (logD) in series [1] is less than 1. In series [2], the IC50 is less than 150 nM. The apparent permeability coefficient (Papp) in series [3] lay in the range of 1 to 10 ×10⁻⁶ cm/s.
On to `CCNC(=O)C(=O)CC[C@H](NC(=O)c1nn[nH]n1)C(=O)Nc1cccn(CC(=O)NC2C3CC4CC(C3)CC2C4)c1=O` (stereo partly drawn) [Compound I-57, (S)-N1-ethyl-N6-(1-(2-(2-adamantylamino)-2-oxoethyl)-2-oxo-1,2-dihydropyridin-3-yl)-2-oxo-5-(2H-tetrazole-5-carboxamido)hexanediamide], for which the pH-dependent lipophilicity (logD) in series [1] is less than 1. The 50% inhibitory concentration (IC50) in series [2] is 600 to 3500 nM. For the same compound, in series [3], the apparent permeability coefficient (Papp) is less than 1 ×10⁻⁶ cm/s.
Take `CCNC(=O)C(=O)CC[C@H](NC(=O)c1cnccn1)C(=O)Nc1cccn(CC(=O)NC2C3CC4CC2CC(O)(C4)C3)c1=O` (stereo partly drawn) [Compound I-58, (S)-N1-ethyl-N6-(1-(2-(5-hydroxyadamantane-2-amino)-2-oxoethyl)-2-oxo-1,2-dihydropyridin-3-yl)-2-oxo-5-(pyrazine-2-carboxamido)hexanediamide]: the log distribution coefficient (logD) in series [1] is less than 1. Besides, in series [2], the 50% inhibitory concentration (IC50) was 150 to 600 nM. The same compound displayed a Papp in series [3] of less than 1 ×10⁻⁶ cm/s.
The corresponding values for `CCNC(=O)C(=O)CC[C@H](NC(=O)[C@H]1CCNC1)C(=O)Nc1cccn(CC(=O)NC2C3CC4CC2CC(F)(C4)C3)c1=O` (stereo partly drawn) [Compound I-59, (S)-N1-ethyl-N6-(1-(2-(5-fluoroadamantane-2-amino)-2-oxoethyl)-2-oxo-1,2-dihydropyridin-3-yl)-2-oxo-5-((S)-pyrrolidine-3-carboxamido)hexanediamide] are less than 1, 150 to 600 nM and less than 1 ×10⁻⁶ cm/s.
Regarding `CCNC(=O)C(=O)CC[C@H](NC(=O)[C@@H]1CCCCN1)C(=O)Nc1cccn(CC(=O)NC2C3CC4CC2CC(Cl)(C4)C3)c1=O` (stereo partly drawn) [Compound I-60, (S)-N1-ethyl-N6-(1-(2-(5-chloroadamantane-2-amino)-2-oxoethyl)-2-oxo-1,2-dihydropyridin-3-yl)-2-oxo-5-((S)-piperidine-2-carboxamido)hexanediamide], in series [1], the pH-dependent lipophilicity (logD) lay within 1 to 3. For the same compound, the IC50 in series [2] fell in the range of 150 to 600 nM. The compound further returned a Papp in series [3] of less than 1 ×10⁻⁶ cm/s.
With `CCNC(=O)C(=O)CC[C@H](NC(=O)[C@@H]1CCCNC1)C(=O)Nc1cccn(CC(=O)NC2C3CC4CC2CC(Br)(C4)C3)c1=O` (stereo partly drawn) [Compound I-61, (S)-N1-ethyl-N6-(1-(2-(5-bromoadamantane-2-amino)-2-oxoethyl)-2-oxo-1,2-dihydropyridin-3-yl)-2-oxo-5-((R)-piperidine-3-carboxamido)hexanediamide], in series [1], the pH-dependent lipophilicity (logD) was in the range of 1 to 3. In series [2], the IC50 was 150 to 600 nM. In addition, the Papp in series [3] was less than 1 ×10⁻⁶ cm/s.
Turning to `CCNC(=O)C(=O)CC[C@H](NC(=O)[C@H]1COCCN1)C(=O)Nc1cccn(CC(=O)NC2C3CC4CC2CC(C)(C4)C3)c1=O` (stereo partly drawn) [Compound I-62, (S)-N1-ethyl-N6-(1-(2-(5-methyladamantane-2-amino)-2-oxoethyl)-2-oxo-1,2-dihydropyridin-3-yl)-5-((R)-morpholine-3-carboxamido)-2-oxohexanediamide], the pH-dependent lipophilicity (logD) in series [1] lay in the range of 1 to 3. In addition, in series [2], the IC50 was in the range of 150 to 600 nM. In addition, in series [3], the apparent permeability coefficient (Papp) is less than 1 ×10⁻⁶ cm/s.
In the case of `CCNC(=O)C(=O)CC[C@H](NC(=O)C1CN2CCC1CC2)C(=O)Nc1cccn(CC(=O)NC2(C#N)C3CC4CC(C3)CC2C4)c1=O` (stereo partly drawn) [Compound I-63, (S)-N1-ethyl-N6-(1-(2-(2-carbonitrileadamantane-2-amino)-2-oxoethyl)-2-oxo-1,2-dihydropyridin-3-yl)-2-oxo-5-((3S,4R)-quinuclidine-3-carboxamido)hexanediamide], the logD in series [1] is less than 1. In addition, the half-inhibitory concentration (IC50) in series [2] fell in the range of 150 to 600 nM. Further, the apparent permeability (Papp) in series [3] was less than 1 ×10⁻⁶ cm/s.
Take `CCNC(=O)C(=O)CC[C@H](NC(=O)c1cc(C(=O)OC)cc([N+](=O)[O-])c1)C(=O)Nc1cccn(CC(=O)NC2(C(=O)OC)C3CC4CC(C3)CC2C4)c1=O` (stereo partly drawn) [Compound I-64, (S)-methyl 3-(6-(ethylamino)-1-(1-(2-(methyl 2-aminoadamantane-2-carboxylate)-2-oxoethyl)-2-oxo-1,2-dihydropyridin-3-ylamino)-1,5,6-trioxohexan-2-ylcarbamoyl)-5-nitrobenzoate]: the log distribution coefficient (logD) in series [1] was in the range of 1 to 3. In addition, the IC50 in series [2] was less than 150 nM. For the same compound, the Papp in series [3] lay within 1 to 10 ×10⁻⁶ cm/s.
Turning to `CCNC(=O)C(=O)CC[C@H](NC(=O)c1cncc([N+](=O)[O-])c1)C(=O)Nc1cccn(CC(=O)NCC23CC4CC(CC(C4)C2)C3)c1=O` [Compound I-65, (S)-N1-(1-(2-(1-adamantylmethylamino)-2-oxoethyl)-2-oxo-1,2-dihydropyridin-3-yl)-N6-ethyl-2-(5-nitronicotinamido)-5-oxohexanediamide], the logD in series [1] was in the range of 1 to 3. In addition, in series [2], the concentration for half-maximal inhibition (IC50) is less than 150 nM. In series [3], this compound yielded a Papp of 1 to 10 ×10⁻⁶ cm/s.
For `CCNC(=O)C(=O)CC[C@H](NC(=O)c1cncc(C(=O)O)c1)C(=O)Nc1cccn(CC(=O)NC(C)C23CC4CC(CC(C4)C2)C3)c1=O` (stereo partly drawn) [Compound I-66], the logD in series [1] was in the range of 3 to 5. Also, the IC50 in series [2] was in the range of 150 to 600 nM. In series [3], this compound came in with a Papp of less than 1 ×10⁻⁶ cm/s.
In the case of `CCNC(=O)C(=O)CC[C@H](NC(=O)c1c(C)nc2sccn12)C(=O)Nc1cccn(CC(=O)N(C)C2C3CC4CC(C3)CC2C4)c1=O` (stereo partly drawn) [Compound I-67, (S)-N1-ethyl-N6-(1-(2-(2-adamantyl(methyl)amino)-2-oxoethyl)-2-oxo-1,2-dihydropyridin-3-yl)-5-(6-methylimidazo[2,1-b]thiazole-5-carboxamido)-2-oxohexanediamide], in series [1], the logD fell in the range of 3 to 5. Besides, the IC50 in series [2] lay within 600 to 3500 nM. In series [3], this compound registered a Papp of less than 1 ×10⁻⁶ cm/s.
Taken in the same sequence, the figures for `CCNC(=O)C(=O)CC[C@H](NC(=O)c1oc2ccccc2c1C)C(=O)Nc1cccn(CC(=O)N[C@@H]2C[C@@H]3CC[C@H]2C3)c1=O` [Compound I-68, (S)-N1-(1-(2-((1S,2R,4R)-bicyclo[2.2.1]heptan-2-ylamino)-2-oxoethyl)-2-oxo-1,2-dihydropyridin-3-yl)-N6-ethyl-2-(3-methylbenzofuran-2-carboxamido)-5-oxohexanediamide] were 1 to 3, less than 150 nM and 1 to 10 ×10⁻⁶ cm/s.
Regarding `CCNC(=O)C(=O)CC[C@H](NC(=O)c1oc2ccccc2c1C)C(=O)Nc1cccn(CC(=O)N[C@H]2C[C@H]3CC[C@]2(C)C3(C)C)c1=O` [Compound I-69, (S)-N1-ethyl-5-(3-methylbenzofuran-2-carboxamido)-2-oxo-N6-(2-oxo-1-(2-oxo-2-((1R,2S,4R)-1,7,7-trimethylbicyclo[2.2.1]heptan-2-ylamino)ethyl)-1,2-dihydropyridin-3-yl)hexanediamide], in series [1], the logD was in the range of 3 to 5. Moreover, the IC50 in series [2] fell in the range of 150 to 600 nM. Moreover, in series [3], the Papp is 1 to 10 ×10⁻⁶ cm/s.
Turning to `CCNC(=O)C(=O)CC[C@H](NC(=O)c1oc2ccccc2c1C)C(=O)Nc1cccn(CC(=O)N[C@@H]2C[C@H]3CC[C@@H]2C3)c1=O` [Compound I-70, (S)-N1-(1-(2-((1R,2R,4S)-bicyclo[2.2.1]heptan-2-ylamino)-2-oxoethyl)-2-oxo-1,2-dihydropyridin-3-yl)-N6-ethyl-2-(3-methylbenzofuran-2-carboxamido)-5-oxohexanediamide], in series [1], the pH-dependent lipophilicity (logD) was in the range of 1 to 3. Besides, in series [2], the IC50 is less than 150 nM. The compound also came in with a Papp in series [3] of 1 to 10 ×10⁻⁶ cm/s.
For `CCNC(=O)C(=O)CC[C@H](NC(=O)c1ccncc1)C(=O)Nc1cccn(CC(=O)NC23CCC(CC2)C3)c1=O` [Compound I-71, (S)-N1-(1-(2-((1s,4R)-bicyclo[2.2.1]heptan-1-ylamino)-2-oxoethyl)-2-oxo-1,2-dihydropyridin-3-yl)-N6-ethyl-2-(isonicotinamido)-5-oxohexanediamide], in series [1], the logD is less than 1. The IC50 in series [2] is 150 to 600 nM. In addition, the Papp in series [3] is less than 1 ×10⁻⁶ cm/s.
Take `CCNC(=O)C(=O)CC[C@H](NC(=O)c1ccnnc1)C(=O)Nc1cccn(CC(=O)NC2C3CCC2CC3)c1=O` (stereo partly drawn) [Compound I-72, (S)-N1-(1-(2-(bicyclo[2.2.1]heptan-7-ylamino)-2-oxoethyl)-2-oxo-1,2-dihydropyridin-3-yl)-N6-ethyl-5-oxo-2-(pyridazine-4-carboxamido)hexanediamide]: the logD in series [1] was less than 1. Besides, the 50% inhibitory concentration (IC50) in series [2] fell in the range of 150 to 600 nM. In series [3], the Papp was less than 1 ×10⁻⁶ cm/s.

For the origin of these results see US20240270715A1, “INHIBITORS OF TRANSGLUTAMINASES” (ZEDIRA GMBH, priority 2021, published 2024).
